Assay results as given in PMC4388757, “In Vitro and In Vivo Metabolism and Inhibitory Activities of Vasicine, a Potent Acetylcholinesterase and Butyrylcholinesterase Inhibitor” (PLoS ONE, 2015).
Counter-ions that a name gives are not always drawn. Like-named read-outs stand apart in the source and are kept apart here.

Legend:
BChE from equine serum [1] = molecular target: T1, BChE from equine serum (Equus caballus, UniProt P81908); assay: In vitro anticholinesterase assay (UPLC-ESI MS/MS), BChE; assay type: biochemical; conditions: for fold reduction of BChE inhibitory activity: VAO vs VAS, VAO-3-S vs VAS-3-S, VAS-3-G vs VAS; for IC50: means ± SD of three replicate determinations
T1 construct: BChE from equine serum; purchased Sigma Aldrich Co. (St. Louis, MO, USA); host or cells: equine serum
T1 sequence (P81908 whole entry): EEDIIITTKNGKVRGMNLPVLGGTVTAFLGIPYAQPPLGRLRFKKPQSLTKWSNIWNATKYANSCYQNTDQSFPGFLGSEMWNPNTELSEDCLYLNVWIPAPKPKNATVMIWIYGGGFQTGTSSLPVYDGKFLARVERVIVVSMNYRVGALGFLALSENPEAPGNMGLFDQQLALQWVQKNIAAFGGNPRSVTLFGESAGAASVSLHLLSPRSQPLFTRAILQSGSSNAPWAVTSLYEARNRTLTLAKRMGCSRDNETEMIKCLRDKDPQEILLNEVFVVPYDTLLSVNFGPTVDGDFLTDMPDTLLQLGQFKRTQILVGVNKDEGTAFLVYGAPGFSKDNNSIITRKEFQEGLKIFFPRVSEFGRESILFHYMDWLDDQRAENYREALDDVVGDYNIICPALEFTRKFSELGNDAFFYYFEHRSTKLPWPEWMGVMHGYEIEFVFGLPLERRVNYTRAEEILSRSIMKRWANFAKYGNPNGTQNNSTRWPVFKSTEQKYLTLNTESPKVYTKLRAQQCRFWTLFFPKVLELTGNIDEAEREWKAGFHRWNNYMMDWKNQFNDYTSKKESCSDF
Description: (§1) VAS and VAO were isolated from P. harmala in our laboratory according to a previously reported method. VAS and VAO structures were elucidated by comparing their spectral data (UV, MS, ^1H-NMR, and ^13C NMR) with the references. The purities of VAS and VAO were determined to be more than 98% through normalization of the peak areas detected by HPLC-DAD, UPLC-MS/MS, ^1H-NMR, and ^13C NMR. AChE from Electrophorus electricus, BChE from equine serum, acetylcholine (ACh) chloride, butyrocholine (BCh) chloride, choline (Ch) chloride, chlormequat (internal standard, IS), glucose 6-phosphate, glucose-6-phosphate dehydrogenase, NADP, UDPGA, alamethicin, fetal bovine serum, dexamethasone, and insulin were purchased from Sigma Aldrich Co. (St. Louis, MO, USA). Tris base and MgCl2 were purchased from Majorbio Biotech Corp., Ltd. (Shanghai, China). MCI Gel CHP 20P was purchased from Mitsubishi Chemical Crop. (Tokyo, Japan). Silica Gel C18 (MB 100-40/75) was purchased from Fuji Silysia Chemical Ltd. (Kasugai, Japan). Acetonitrile and methanol of HPLC grade were purchased from Fisher Scientific Co. (Santa Clara, USA). HPLC grade 96% formic acid was purchased from Tedia Co. (Fairfield, USA). Water was produced with a Milli-Q Academic System (Millipore, Billerica, MA). All other reagents and solvents were either analytical or HPLC grade.
(§2) The AChE and BChE inhibitory activities of VAS and its main metabolites, namely, VAO, VASL, VAOL, VAS-3-S, VAO-3-S, and VAS-3-G, were evaluated based on our previously established method. A 50 μL incubation system composed of 10 μL of the test compound solution (all the test compound solutions were diluted to a series of concentrations with buffer solution before each experiment) and 40 μL of the enzyme solutions (with final concentrations: 0.0035 unit/mL for AChE, or 0.008 unit/mL for BChE) were mixed and pre-incubated for 15 min. Up to 50 μL of substrate solution (final concentration of 5.505 μM for ACh, or 7.152 μM for BCh) was added into the mixture, which was then incubated for 20 min at 25°C. The reaction was terminated by addition of 300 μL of ice acetonitrile solution (0°C), which was immediately dissolved with 1.899 μM IS (chlormequat). The solution was then centrifuged (15,000 × g, 10 min), and the supernatant was used for analysis by UPLC-ESI MS/MS. The inhibitive IC50 values of VAS and its key metabolites on AChE and BChE were calculated using the Prism software (GraphPad Software Inc., San Diego, CA).

[2] = Metabolite detection in rat bio-specimens (urine, feces, bile, plasma) by UPLC/ESI-QTOF-MS after oral VAS; assay type: in vivo
Description: Bio-specimens (urine, feces, bile and plasma) collected form 18 male rats were used to study the VAS metabolism in vivo. […] Baseline urine and fecal samples were collected before oral administration of VAS. After intraperitoneal injection of urethane (1.4 g/kg), abdominal incision was made for bile sampling and the common bile duct was cannulated with a Closed IV Catheter System (ID = 0.07 cm, Becton Dickinson, USA) to collect bile samples. […] Baseline rat bile was collected before oral administration of VAS. All the samples were stored at −20°C until analysis. Blood was collected from the angular vein of the last six male rats at 0.25, 0.5, 1, and 2 h after oral administration of VAS 50 mg/kg VAS. Plasma was obtained by centrifuging blood at 4000 × g for 10 min, and then stored at −20°C until use.
Up to 1 mL of urine was thoroughly mixed with same volume of acetonitrile, and then centrifuged at 15,000 × g for 10 min. The supernatant was evaporated until dry under nitrogen at 37°C. The residue of the supernatant was re-dissolved in 200 μL of 5% methanol, and then centrifuged at 15,000 × g for 10 min. The supernatant was injected into the chromatographic systems for separation and identification of metabolites.
The supernatant was then evaporated to dryness by a gentle stream of nitrogen at 37°C. The residue was dissolved by 200 μL of 5% methanol and centrifuged at 15,000 × g for 10 min prior to injection.
Plasma or bile (400 μL) was mixed and vortexed with 1200 μL of acetonitrile for […], then centrifuged at 15,000 × g for 10 min at 4°C. Afterward, the supernatant was evaporated until dry by a gentle stream of nitrogen at 37°C. The residue was dissolved by 80 μL of 5% methanol and centrifuged at 15,000 × g for 10 min. The supernatants (5 μL) were used in the UPLC/ESI-QTOF-MS analysis.
Chromatographic analysis was performed on an HSS T3 column (100 mm × 2.1 mm, 1.8 μm particle size; Waters Corporation, Milford, MA, USA) for separation of samples using an ACQUITY UPLC system equipped with a binary solvent manager system and an autosampler. […] The flow rate was 0.4 mL/min. The column and sample-tray temperatures were maintained at 40°C and 10°C, respectively.
A Waters ACQUITY Synapt G2 Q/TOF tandem mass spectrometer was combined with the UPLC system through an electrospray ionization (ESI) interface and controlled by Masslynx software (version 4.1, Waters Corp., Manchester, UK). The positive ionization mode of ESI source was operated. The optimized conditions for maximum detection of metabolites were as follows: source temperature, 120°C; desolvation temperature, 400°C; capillary voltage, 3.0 kV; sample cone, 30 V and extraction cone, 4.0 V. The cone and desolvation gas (N2) flows were set at 75 and 800 (L/h), respectively. […] Data were collected in centroid mode and the MS^E approach using a dynamic ramp of collision energy was carried out in two scan functions. Function 1 (low energy): mass scan ranged from 100–1000,with 0.2 s scan time and 0.05 s inter-scan delay; Function 2 (high energy): mass scan ranged from 100–1000 with 0.2 s scan time, 0.05 s inter-scan delay, and collision energy ramp of 10–40 V. MS/MS analysis were operated for major metabolites to obtain additional information from product ions since the same collision energy of MS^E in Function 2 could not match each precursor ion.

[3] = molecular target: T2, AChE from Electrophorus electricus (Electrophorus electricus, UniProt O42275); assay: biochemical; assay type: biochemical; conditions: for fold reduction of AChE inhibitory activity: VAO vs VAS, VAO-3-S vs VAS-3-S, VAS-3-G vs VAS; for IC50: means ± SD of three replicate determinations
T2 construct: purchased Sigma Aldrich Co. (St. Louis, MO, USA)
T2 sequence (O42275 24-633): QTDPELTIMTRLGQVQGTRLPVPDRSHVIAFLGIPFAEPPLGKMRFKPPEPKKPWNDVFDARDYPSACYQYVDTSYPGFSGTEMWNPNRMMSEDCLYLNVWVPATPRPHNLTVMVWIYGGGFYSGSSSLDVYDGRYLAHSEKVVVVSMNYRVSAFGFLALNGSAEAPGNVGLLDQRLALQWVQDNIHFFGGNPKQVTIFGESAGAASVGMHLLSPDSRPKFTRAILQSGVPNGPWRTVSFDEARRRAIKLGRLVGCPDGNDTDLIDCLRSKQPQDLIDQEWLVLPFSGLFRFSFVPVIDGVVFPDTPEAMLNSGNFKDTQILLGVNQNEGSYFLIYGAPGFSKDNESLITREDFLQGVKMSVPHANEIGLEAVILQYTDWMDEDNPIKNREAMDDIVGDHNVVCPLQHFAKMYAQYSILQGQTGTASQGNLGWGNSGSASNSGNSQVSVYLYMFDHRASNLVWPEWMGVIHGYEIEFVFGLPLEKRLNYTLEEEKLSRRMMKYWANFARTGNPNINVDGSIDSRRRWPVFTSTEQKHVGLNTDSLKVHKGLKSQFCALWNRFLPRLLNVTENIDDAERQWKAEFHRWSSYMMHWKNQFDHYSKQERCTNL
Description: as §1, with “The purities of VAS and VAO were determined to be more than 98% through normalization of the peak areas detected by HPLC-DAD, UPLC-MS/MS, ^1H-NMR, and ^13C NMR.” left out
as §2

[4] = Stability of glucuronide metabolites in collected urine; assay type: physicochemical; conditions: room temperature for an excessively long time, pH > 10
[5] = molecular target: T2, AChE from Electrophorus electricus; parameters: method as in PMID 23270245, doi:10.1155/2013/71723, PMID 24631841; conditions: previous studies; ref [3], [6]–[8]; read-out: IC50 against AChE; cited from earlier work
[6] = Bioavailability studies of VAS (unpublished data of the laboratory); conditions: in vivo, no published data; for half-life: read-out: elimination half-life (converted)
Description: (§3) It illustrated that VAS is safe as a potential candidate drug.

rats = assay: Observation of side effects during 21-day oral dosing for urine collection; assay type: in vivo, rat; conditions: 15 rats, oral 100 mg/kg once a day for 21 consecutive days
Description: The urine samples used for isolating and purifying the metabolites were collected from 15 rats that were given VAS orally once a day, over 21 consecutive days, at dose of 100 mg/kg body weight. In total, approximately 5 L of urine was collected and centrifuged at 4000 × g for 15 min. The supernatant was then stored at −20°C until use. At the end of experiment, all rats were sacrificed by CO2 asphyxiation.
as §3

BChE from equine serum [7] = molecular target: T1, BChE from equine serum; parameters: method as in PMID 23270245, doi:10.1155/2013/71723, PMID 24631841; conditions: previous studies; ref [3], [6]–[8]; read-out: IC50 against BChE; cited from earlier work
[8] = LD50 determination of VAS (unpublished data); conditions: in vivo; no published data
Description: as §3

[9] = parameters: method as in ref [37] = [37]; 37 Bhide M , Naik P , Ghooi R . Comparative studies on the pharmacological evaluation of vasicine and vasicinone . Bull Haffkin Inst . 1976; 4 : 45 – 50 .; conditions: comparable to sodium cromoglycate; ref [37]; cited from earlier work
[10] = parameters: method as in ref [36] = [36]; 36 Swamy G , Ravikumar K . Crystal and molecular structures of quinazolines: A ring conformational study . J Chem Crystallogr . 2005; 35 : 183 – 189 .; conditions: in vitro and in vivo; ref [36]; cited from earlier work

Row | Compound | fold reduction of BChE inhibitory activity (BChE from equine serum [1]) [fold] | IC50 (BChE from equine serum [1]) [µM] | abundance in plasma [2] | SI (AChE selectivity index, IC50 BChE/IC50 AChE) [3] | IC50 [3] [µM] | also measured
1 | O=c1c2ccccc2nc2n1CCC2OS(=O)(=O)O (stereo not shown) [Metabolite M16, 9-oxo-1,2,3,9-tetrahydropyrrolo [2,1-b] quinazolin-3-yl hydrogen sulfate] | 2.8 | 27.3 ± 5.03 | high abundance | 0.069 | 395 ± 19.5 | fold reduction of AChE inhibitory activity [3]: 8.0 fold
2 | O=C(O)C1OC(OC2CCN3Cc4ccccc4N=C23)C(O)C(O)C1O [Metabolite M20-2, 1,2,3,9-tetrahydropyrrolo [2,1-b] quinazolin-3-β-D-glucuronide] | 1027.7 | 104 ± 15.5 | high abundance | 4.998 | 20.8 ± 0.329 | stability in urine sample [4]: hydrolyzed
3 | O[C@H]1CCN2Cc3ccccc3N=C12 [Metabolite M0, Vasicine] | – | 0.101 ± 0.003 | – | 0.030 | 3.38 ± 0.03 | IC50 [5]: 3.24 ± 0.08 µM; half-life ([6]; after intravenous administration): ~5 h; bioavailability ([6]; after oral administration, read-out: absolute bioavailability): ~50%; half-life ([6]; after oral administration): ~1.5 h; observable side effects (rats): no any observable side effects; IC50 (BChE from equine serum [7]): 0.1 µM; LD50 [8]: 308 mg/kg
4 | O=c1c2ccccc2nc2n1CCC2O (stereo not shown) [Metabolite M1, vasicinone] | 101.0 | 10.2 ± 2.08 | high abundance | 0.133 | 76.6 ± 8.46 | anti-asthmatic activity compared with VAS [9]: more potent anti-asthmatic activity than VAS; bronchodilatory effects compared with VAS [10]: more bronchodilatory effects than parent VAS; fold reduction of AChE inhibitory activity [3]: 22.7 fold
5 | O=C(O)[C@H]1O[C@@H](O[C@H]2CCn3c2nc2ccccc2c3=O)[C@H](O)[C@@H](O)[C@@H]1O [Metabolite M21-2, vasicinone-3-O-glucuronide] | – | – | high abundance | – | – | stability in urine sample [4]: hydrolyzed
6 | O=c1c2cc(O)ccc2nc2n1CCC2O (stereo not shown) [Metabolite M5-2, vasicinolone] | – | 72.4 ± 8.63 | – | 1.545 | 46.9 ± 2.84 | –
7 | Oc1ccc2c(c1)CN1CCC(O)C1=N2 (stereo not shown) [Metabolite M3-2, vasicinol] | – | 2.46 ± 0.224 | – | 0.930 | 2.65 ± 0.432 | –
8 | O=S(=O)(O)OC1CCN2Cc3ccccc3N=C12 (stereo not shown) [Metabolite M15, 1,2,3,9-tetrahydropyrrolo [2,1-b] quinazolin-3-yl hydrogen sulfate] | – | 9.82 ± 0.925 | high abundance | 0.198 | 49.6 ± 2.77 | –
9 | OC1CCN2C1=Nc1ccccc1C2O (stereo not shown) [Metabolite M3-3, 1,2,3,9-tetrahydropyrrolo [2,1-b] quinazolin-3,9-diol] | – | – | high abundance | – | – | –
